Results: US20080242681A1, “N-4-(6-(Hetero)Aryl-Pyrimidin-4-Ylaminophenyl)-Benzenesulfonamides as Kinase Inhibitors” (Altana Pharma AG, priority 2004, published 2008)
Structures can show the parent of a compound that is named as a salt.

Columns and labels:
Assay type in all cases: biochemical
[1] = biological target: T1, PKCε (Homo sapiens, UniProt Q02156); experiment: Protein Kinase C ε assay (SPA); conditions: human recombinant PKCε, PKCη pseudosubstrate, read-out: IC50, inhibition of PKC ε
T1 construct: purchased Panvera
T1 sequence (Q02156 1-737): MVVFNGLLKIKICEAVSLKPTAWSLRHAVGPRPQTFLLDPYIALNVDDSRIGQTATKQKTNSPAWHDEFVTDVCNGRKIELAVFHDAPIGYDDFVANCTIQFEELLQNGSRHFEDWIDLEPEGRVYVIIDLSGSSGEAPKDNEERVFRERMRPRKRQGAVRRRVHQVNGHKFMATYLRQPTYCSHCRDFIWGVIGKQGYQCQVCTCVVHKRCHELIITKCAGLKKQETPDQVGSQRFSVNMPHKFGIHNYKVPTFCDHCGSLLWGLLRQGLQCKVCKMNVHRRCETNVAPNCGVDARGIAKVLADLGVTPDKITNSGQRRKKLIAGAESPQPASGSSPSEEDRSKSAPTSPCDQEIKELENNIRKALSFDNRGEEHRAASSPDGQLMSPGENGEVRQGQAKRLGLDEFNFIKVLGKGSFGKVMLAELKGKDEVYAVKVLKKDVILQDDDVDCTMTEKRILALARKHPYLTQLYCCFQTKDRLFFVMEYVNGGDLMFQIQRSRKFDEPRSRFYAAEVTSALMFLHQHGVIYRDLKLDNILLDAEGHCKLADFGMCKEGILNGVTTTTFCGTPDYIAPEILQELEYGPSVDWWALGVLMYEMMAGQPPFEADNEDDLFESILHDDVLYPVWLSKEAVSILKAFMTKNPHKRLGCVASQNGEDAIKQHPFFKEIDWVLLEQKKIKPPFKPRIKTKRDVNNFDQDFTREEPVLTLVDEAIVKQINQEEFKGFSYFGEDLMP
Experimental: (§1) The compounds of formula 1 are tested for their activity on different protein kinases and PKC isoforms using a scintillation proximity assay (SPA, Amersham International plc). ^33P-labeled peptides are captured onto streptavidin coated yttrium silicate SPA beads. β-particles, emitted from the captured ^33P-labeled substrate in close proximity to the bead are able to excite the scintillant, resulting in the generation of quantifiable light. The assay is performed in a 96-well polystyrene microtiterplate (1450-514, Isoplates, Wallac, Turku, Finland). The reaction mixture (50 μl) contains 10 μl of the test compound together with 10 μl of the relevant kinase, diluted in the relevant dilution buffer, 5 μl of 10 μM phorbol myristate acetate (PMA) in H2O, 5 μl of 1.6 mM phosphatidylserine (Sigma-Aldrich Chemie GmbH, Stein-heim, Germany) in 20 mM Tris/HCL buffer pH 7.4, 5 μl of 0.3% BSA in H2O, 5 μl of 30 μM relevant substrate and 10 μl of 5 μM ATP and 0.1 μCi of ^33P-ATP (Amersham, Freiburg, Germany) in 200 mM Tris/HCL pH 7.5 and 200 mM MgCl2. Incubation is performed for 40 min at room temperature (RT) without shaking. Reaction is stopped by adding 150 μl of cold stop solution containing 10 mM ATP, 5 mM EGTA pH 7.5, 0.1% Triton X-100 and 0.2 mg streptavidin coated yttrium silicate SPA beads (Amersham, RPNQ 0012). The sealed plate is incubated for 60 min at RT. Thereafter the MTP is counted in a Microbeta Jet (Wallac). IC50 measurement is performed on a routine basis by incubation a serial dilution of inhibitor at concentrations ranging between 0.01 and 100 μM according to the method described above. Background values are the signals of the reaction mixture without addition of the relevant kinase and are subtracted from all values. 100% values are the signals of the reaction mixture without addition of inhibitors.
Dependent on the efficacy of the inhibitors In the various test systems, corresponding IC50 values are calculated from concentration-inhibition curves by nonlinear regression analysis using the program GraphPad Prism (GraphPad Software Inc., San Diego, Calif.).
Human recombinant PKCε was obtained from Panvera and is used under the assay conditions as described above (Section A.1). The enzyme is diluted in PKC dilution buffer containing 1 mM Hepes pH 7.4, 0.5 mM DTT and 0.001% Triton X-100. The kinase reaction is performed with the biotinylated PKCη pseudosubstrate solved in H2O.

[2] = biological target: T2, PKA (Homo sapiens, UniProt P17612); experiment: Protein Kinase A assay (SPA); conditions: human recombinant PKA, read-out: IC50, inhibition of PKA
T2 construct: purchased Panvera
Experimental: as §1
Human recombinant PKA was obtained from Panvera and is used in a scintillation proximity assay described in Section A.1. […] Thereafter the MTP is counted in a Microbeta Jet (Wallac). […] IC50 values are calculated from the graph by sigmoidal curve fitting.

[3] = biological target: T3, PKCι (Homo sapiens, UniProt P41743); experiment: Protein Kinase C ι assay (SPA); conditions: human recombinant PKCι from Sf21 insect cells, absence of PMA and phosphatidylserine, read-out: IC50, inhibition of PKC ι
T3 construct: made in house; host or cells: Sf21 insect cells
T3 sequence (P41743 1-596): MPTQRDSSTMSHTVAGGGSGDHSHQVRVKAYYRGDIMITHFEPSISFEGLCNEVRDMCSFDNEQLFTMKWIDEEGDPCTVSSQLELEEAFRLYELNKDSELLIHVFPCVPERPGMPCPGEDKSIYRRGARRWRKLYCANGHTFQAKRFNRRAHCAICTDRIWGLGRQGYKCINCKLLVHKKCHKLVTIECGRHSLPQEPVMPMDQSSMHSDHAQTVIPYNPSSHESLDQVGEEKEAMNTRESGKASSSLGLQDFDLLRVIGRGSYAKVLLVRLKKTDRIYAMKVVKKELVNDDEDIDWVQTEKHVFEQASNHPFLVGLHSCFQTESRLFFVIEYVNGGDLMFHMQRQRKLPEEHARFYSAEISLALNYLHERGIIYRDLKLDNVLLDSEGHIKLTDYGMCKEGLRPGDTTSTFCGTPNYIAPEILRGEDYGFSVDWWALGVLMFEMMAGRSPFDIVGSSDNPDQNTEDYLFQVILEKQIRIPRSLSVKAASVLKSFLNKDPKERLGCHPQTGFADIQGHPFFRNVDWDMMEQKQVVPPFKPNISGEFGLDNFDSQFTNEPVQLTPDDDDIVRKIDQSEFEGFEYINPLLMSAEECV
Experimental: as §1
(§2) Dependent on the efficacy of the inhibitors In the various test systems, corresponding IC50 values are calculated from concentration-inhibition curves by nonlinear regression analysis using the program GraphPad Prism (GraphPad Software Inc., San Diego, Calif.). […]

[4] = biological target: T4, PKCζ (Homo sapiens, UniProt Q05513); experiment: Protein Kinase C ζ assay (SPA); conditions: human recombinant PKCζ, absence of PMA and phosphatidylserine, read-out: IC50, inhibition of PKC ζ
T4 construct: purchased Panvera
T4 sequence (Q05513 1-592): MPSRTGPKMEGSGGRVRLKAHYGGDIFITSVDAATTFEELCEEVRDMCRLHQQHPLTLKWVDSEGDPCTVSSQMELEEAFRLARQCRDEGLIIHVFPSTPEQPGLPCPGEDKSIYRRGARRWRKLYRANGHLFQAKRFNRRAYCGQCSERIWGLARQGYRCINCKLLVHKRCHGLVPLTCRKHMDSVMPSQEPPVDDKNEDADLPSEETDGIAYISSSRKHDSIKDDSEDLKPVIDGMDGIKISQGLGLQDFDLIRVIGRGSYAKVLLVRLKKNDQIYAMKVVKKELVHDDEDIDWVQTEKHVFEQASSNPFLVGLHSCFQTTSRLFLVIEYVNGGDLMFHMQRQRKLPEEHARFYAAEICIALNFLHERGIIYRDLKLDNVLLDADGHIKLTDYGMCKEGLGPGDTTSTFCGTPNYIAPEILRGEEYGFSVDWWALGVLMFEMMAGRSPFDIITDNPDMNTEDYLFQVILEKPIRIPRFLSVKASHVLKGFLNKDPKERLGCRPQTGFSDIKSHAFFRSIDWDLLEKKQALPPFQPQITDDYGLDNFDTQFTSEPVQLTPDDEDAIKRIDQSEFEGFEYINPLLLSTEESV
Experimental: (§3) The compounds of formula 1 are tested for their activity on different protein kinases and PKC isoforms using a scintillation proximity assay (SPA, Amersham International plc). ^33P-labeled peptides are captured onto streptavidin coated yttrium silicate SPA beads. β-particles, emitted from the captured ^33P-labeled substrate in close proximity to the bead are able to excite the scintillant, resulting in the generation of quantifiable light. The assay is performed in a 96-well polystyrene microtiterplate (1450-514, Isoplates, Wallac, Turku, Finland). The reaction mixture (50 μl) contains 10 μl of the test compound together with 10 μl of the relevant kinase, diluted in the relevant dilution buffer, 5 μl of 10 μM phorbol myristate acetate (PMA) in H2O, 5 μl of 1.6 mM phosphatidylserine (Sigma-Aldrich Chemie GmbH, Stein-heim, Germany) in 20 mM Tris/HCL buffer pH 7.4, 5 μl of 0.3% BSA in H2O, 5 μl of 30 μM relevant substrate and 10 μl of 5 μM ATP and 0.1 μCi of ^33P-ATP (Amersham, Freiburg, Germany) in 200 mM Tris/HCL pH 7.5 and 200 mM MgCl2. […] Thereafter the MTP is counted in a Microbeta Jet (Wallac). […]
as §2

[5] = biological target: T5, Lck (Homo sapiens, UniProt P06239); experiment: Lck (p56Lck) assay (SPA); conditions: human recombinant Lck, read-out: IC50, inhibition of Lck
T5 construct: purchased Upstate (Dundee, UK)
T5 sequence (P06239 whole entry): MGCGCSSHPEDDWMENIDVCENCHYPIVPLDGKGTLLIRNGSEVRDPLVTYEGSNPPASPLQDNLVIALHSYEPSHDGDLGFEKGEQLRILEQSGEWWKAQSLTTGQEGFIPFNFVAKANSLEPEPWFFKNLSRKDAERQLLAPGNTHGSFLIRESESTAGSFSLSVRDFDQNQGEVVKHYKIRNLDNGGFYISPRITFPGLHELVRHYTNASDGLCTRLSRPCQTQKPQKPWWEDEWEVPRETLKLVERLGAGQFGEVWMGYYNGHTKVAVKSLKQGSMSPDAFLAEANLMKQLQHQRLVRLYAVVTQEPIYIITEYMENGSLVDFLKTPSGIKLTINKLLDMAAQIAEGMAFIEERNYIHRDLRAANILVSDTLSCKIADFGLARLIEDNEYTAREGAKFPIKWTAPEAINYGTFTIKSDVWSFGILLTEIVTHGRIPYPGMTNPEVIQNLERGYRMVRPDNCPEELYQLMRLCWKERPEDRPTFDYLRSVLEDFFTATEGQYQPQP
Experimental: as §3
Human recombinant Lck was obtained from Upstate (Dundee, UK) and is used in a scintillation proximity assay described in Section A.1. […] Thereafter the MTP is counted in a Microbeta Jet (Wallac). […] IC50 values are calculated from the graph by sigmoidal curve fitting. […]

## Cc1csc(-c2cc(Nc3ccc(NS(=O)(=O)c4c(F)cccc4F)cc3)ncn2)c1 [Example 117, 2,6-Difluoro-N-{4-[6-(4-methyl-thiophen-2-yl)-pyrimidin-4-ylamino]-phenyl}-benzenesulfonamide]
[1]
  IC50: 4 to 21 µM
[2]
  IC50: 3 to 16 µM

## CN1CCN(CCCn2ccc3cc(-c4cc(Nc5ccc(NS(=O)(=O)c6ccc(F)c(Cl)c6)cc5)ncn4)ccc32)CC1 [Example 162, 3-Chloro-4-fluoro-N-[4-(6-{1-[3-(4-methyl-piperazin-1-yl)-propyl]-1H-indol-5-yl}-pyrimidin-4-ylamino)-phenyl]-benzenesulfonamide formic acid salt]
[3]
  IC50: 7 to 34 µM

## O=S(=O)(Nc1ccc(Nc2cc(-c3ccc4[nH]ccc4c3)ncn2)cc1)c1cccc(F)c1 [Example 121, 3-Fluoro-N-{4-[6-(1H-indol-5-yl)-pyrimidin-4-ylamino]-phenyl}-benzenesulfonamide]
[2]
  IC50: 3 to 16 µM

## COc1ccc(S(=O)(=O)Nc2ccc(Nc3cc(-c4ccc5c(ccn5CCCN5CCCC5)c4)ncn3)cc2)cc1 [Example 145, 4-Methoxy-N-(4-{6-[1-(3-pyrrolidin-1-yl-propyl)-1H-indol-5-yl]-pyrimidin-4-ylamino}-phenyl)-benzenesulfonamide formic acid salt]
[3]
  IC50: 7 to 34 µM

## CCN(CC)CCCn1cc(-c2cc(Nc3ccc(NS(=O)(=O)c4ccc(F)cc4F)cc3)ncn2)c2ccccc21 [Example 175, N-(4-{6-[1-(3-Diethylamino-propyl)-1H-indol-3-yl]-pyrimidin-4-ylamino}-phenyl)-2,4-difluoro-benzenesulfonamide formic acid salt]
[4]
  IC50: 15 to 25 µM

## O=S(=O)(Nc1ccc(Nc2cc(-c3ccc4c(ccn4CCCN4CCCC4)c3)ncn2)cc1)c1c(F)cccc1F [Example 143, 2,6-Difluoro-N-(4-{6-[1-(3-pyrrolidin-1-yl-propyl)-1H-indol-5-yl]-pyrimidin-4-ylamino}-phenyl)-benzenesulfonamide formic acid salt]
[4]
  IC50: 15 to 25 µM

## O=S(=O)(Nc1ccc(Nc2cc(-c3cccc4ccccc34)ncn2)cc1)c1ccc(Cl)c(Cl)c1 [Example 10, 3,4-Dichloro-N-[4-(6-naphthalen-1-yl-pyrimidin-4-ylamino)-phenyl]-benzenesulfonamide]
[2]
  IC50: 3 to 16 µM

## COc1ccc(S(=O)(=O)Nc2ccc(Nc3cc(-c4ccc5c(ccn5CCCN(C)C)c4)ncn3)cc2)cc1 [Example 131, N-(4-[6-[1-(3-Dimethylamino-propyl)-1H-indol-5-yl]pyrimidin-4-ylamino]phenyl)-4-methoxy-benzenesulfonamide]
[5]
  IC50: < 3 µM
